Broadly, the IC50 is the midpoint of a concentration-inhibition curve.

In series [1] the target is Rho-associated protein kinase 1 (Homo sapiens, UniProt Q13464). The series can be described thus: Inhibition of human recombinant ROCK1.
The target of series [2] is Rho-associated protein kinase 2 (Homo sapiens, UniProt O75116). The series can be described thus: Inhibition of human recombinant ROCK2.
The target of another series is Cytochrome P450 2C19 (Homo sapiens, UniProt P33261). The series can be described thus: Inhibition of CYP2C19. It counts as ADME.
In a further series the target is T1, Cytochrome P450 2B6 (Homo sapiens, UniProt P20813).
T1 sequence (P20813 whole entry): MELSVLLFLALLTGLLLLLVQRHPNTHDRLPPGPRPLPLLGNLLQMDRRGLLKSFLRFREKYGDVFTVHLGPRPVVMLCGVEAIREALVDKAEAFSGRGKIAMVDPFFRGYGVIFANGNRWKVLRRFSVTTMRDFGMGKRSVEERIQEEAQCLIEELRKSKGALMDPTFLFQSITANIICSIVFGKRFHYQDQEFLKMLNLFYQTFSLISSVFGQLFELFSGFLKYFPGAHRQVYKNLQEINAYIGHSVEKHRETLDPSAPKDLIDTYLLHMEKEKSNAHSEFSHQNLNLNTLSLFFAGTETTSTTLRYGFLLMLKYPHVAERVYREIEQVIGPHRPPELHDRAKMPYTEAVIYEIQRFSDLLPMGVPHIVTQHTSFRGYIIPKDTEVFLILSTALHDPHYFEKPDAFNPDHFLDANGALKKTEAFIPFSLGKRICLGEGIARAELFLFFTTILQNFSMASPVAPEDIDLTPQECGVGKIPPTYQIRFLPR
As to the kind of experiment: Inhibition of CYP2B6. The format is ADME.

A short description of series [3]: Metabolic stability in human liver microsomes after 1 hr. The format is ADME, Microsome. The following applies: read-out: Stability.
Another series deals with Cytochrome P450 3A4 (Homo sapiens, UniProt P08684). As to the kind of experiment: Inhibition of CYP3A4. It counts as ADME.
The next series has as its target Cytochrome P450 2D6 (Homo sapiens, UniProt P10635). The series can be described thus: Inhibition of CYP2D6. The format is ADME.
The next series addresses T2, Cytochrome P450 1A2 (Homo sapiens, UniProt P05177).
T2 sequence (P05177 whole entry): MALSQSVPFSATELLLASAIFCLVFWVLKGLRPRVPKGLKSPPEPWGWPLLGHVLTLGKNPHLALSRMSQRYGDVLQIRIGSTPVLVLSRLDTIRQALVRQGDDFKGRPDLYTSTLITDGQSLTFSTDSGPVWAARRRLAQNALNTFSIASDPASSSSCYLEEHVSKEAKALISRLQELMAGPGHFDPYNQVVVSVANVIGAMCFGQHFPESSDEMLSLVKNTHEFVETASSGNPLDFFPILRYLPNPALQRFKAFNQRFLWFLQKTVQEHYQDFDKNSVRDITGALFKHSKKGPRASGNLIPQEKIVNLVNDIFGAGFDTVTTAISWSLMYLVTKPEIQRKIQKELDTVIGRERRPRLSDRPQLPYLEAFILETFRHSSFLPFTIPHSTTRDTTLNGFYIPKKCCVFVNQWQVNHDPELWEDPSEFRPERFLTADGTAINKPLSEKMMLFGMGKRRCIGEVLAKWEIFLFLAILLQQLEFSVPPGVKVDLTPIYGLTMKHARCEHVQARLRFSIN
As to the kind of experiment: Inhibition of CYP1A2. The format is ADME.

The next series concerns the target T3, Cytochrome P450 2C8 (Homo sapiens, UniProt P10632).
T3 sequence (P10632 whole entry): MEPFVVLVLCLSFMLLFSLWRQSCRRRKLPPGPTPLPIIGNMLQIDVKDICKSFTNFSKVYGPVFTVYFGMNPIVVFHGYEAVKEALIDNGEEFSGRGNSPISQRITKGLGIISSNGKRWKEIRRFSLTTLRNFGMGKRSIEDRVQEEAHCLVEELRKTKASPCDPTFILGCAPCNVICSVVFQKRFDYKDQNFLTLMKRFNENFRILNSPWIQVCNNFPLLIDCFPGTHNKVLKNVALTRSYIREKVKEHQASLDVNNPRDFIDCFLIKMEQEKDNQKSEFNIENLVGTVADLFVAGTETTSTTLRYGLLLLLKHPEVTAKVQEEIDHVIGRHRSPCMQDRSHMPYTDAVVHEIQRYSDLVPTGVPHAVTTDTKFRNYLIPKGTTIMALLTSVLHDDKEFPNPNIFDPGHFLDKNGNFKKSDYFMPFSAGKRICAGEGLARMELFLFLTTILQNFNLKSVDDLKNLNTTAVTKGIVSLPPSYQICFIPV
The series can be described thus: Inhibition of CYP2C8. The format is ADME.

Chain of Rho-associated protein kinase 2 (O75116 whole entry): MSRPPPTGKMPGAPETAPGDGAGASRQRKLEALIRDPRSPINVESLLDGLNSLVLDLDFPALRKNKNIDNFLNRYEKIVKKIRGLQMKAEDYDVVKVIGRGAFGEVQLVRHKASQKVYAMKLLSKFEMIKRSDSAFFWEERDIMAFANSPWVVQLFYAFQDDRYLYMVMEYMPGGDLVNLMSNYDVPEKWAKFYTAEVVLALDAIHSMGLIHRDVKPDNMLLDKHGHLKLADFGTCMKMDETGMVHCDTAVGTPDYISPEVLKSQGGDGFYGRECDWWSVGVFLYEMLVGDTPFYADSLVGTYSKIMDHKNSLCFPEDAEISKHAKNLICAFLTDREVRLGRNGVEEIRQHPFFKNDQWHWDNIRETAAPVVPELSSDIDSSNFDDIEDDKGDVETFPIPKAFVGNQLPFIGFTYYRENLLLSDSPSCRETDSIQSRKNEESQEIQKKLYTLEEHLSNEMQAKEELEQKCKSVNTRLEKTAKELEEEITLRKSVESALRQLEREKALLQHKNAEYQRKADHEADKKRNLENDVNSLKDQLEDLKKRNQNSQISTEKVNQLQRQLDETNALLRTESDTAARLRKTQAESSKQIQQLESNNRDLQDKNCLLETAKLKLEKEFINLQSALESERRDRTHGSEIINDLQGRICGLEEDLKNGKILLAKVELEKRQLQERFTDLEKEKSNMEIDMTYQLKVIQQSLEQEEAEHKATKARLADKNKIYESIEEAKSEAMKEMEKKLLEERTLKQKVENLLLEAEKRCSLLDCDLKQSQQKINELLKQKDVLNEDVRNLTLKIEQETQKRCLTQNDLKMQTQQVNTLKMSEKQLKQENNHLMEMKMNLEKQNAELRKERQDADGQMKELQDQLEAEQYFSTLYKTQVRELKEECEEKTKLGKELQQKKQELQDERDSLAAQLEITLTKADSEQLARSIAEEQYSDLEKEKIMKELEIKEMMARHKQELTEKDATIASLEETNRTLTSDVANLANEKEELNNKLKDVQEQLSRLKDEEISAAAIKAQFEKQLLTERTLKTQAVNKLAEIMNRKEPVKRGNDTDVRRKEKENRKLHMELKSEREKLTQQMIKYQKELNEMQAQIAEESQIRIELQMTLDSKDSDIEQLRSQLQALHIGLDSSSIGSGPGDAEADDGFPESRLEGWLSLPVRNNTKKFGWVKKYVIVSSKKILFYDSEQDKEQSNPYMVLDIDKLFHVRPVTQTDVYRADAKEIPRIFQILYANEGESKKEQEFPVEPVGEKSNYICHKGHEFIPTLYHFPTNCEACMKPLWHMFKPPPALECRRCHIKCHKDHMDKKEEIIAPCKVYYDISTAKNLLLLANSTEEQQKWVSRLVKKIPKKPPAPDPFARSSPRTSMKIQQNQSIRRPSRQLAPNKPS
Chain of Rho-associated protein kinase 1 (Q13464 whole entry): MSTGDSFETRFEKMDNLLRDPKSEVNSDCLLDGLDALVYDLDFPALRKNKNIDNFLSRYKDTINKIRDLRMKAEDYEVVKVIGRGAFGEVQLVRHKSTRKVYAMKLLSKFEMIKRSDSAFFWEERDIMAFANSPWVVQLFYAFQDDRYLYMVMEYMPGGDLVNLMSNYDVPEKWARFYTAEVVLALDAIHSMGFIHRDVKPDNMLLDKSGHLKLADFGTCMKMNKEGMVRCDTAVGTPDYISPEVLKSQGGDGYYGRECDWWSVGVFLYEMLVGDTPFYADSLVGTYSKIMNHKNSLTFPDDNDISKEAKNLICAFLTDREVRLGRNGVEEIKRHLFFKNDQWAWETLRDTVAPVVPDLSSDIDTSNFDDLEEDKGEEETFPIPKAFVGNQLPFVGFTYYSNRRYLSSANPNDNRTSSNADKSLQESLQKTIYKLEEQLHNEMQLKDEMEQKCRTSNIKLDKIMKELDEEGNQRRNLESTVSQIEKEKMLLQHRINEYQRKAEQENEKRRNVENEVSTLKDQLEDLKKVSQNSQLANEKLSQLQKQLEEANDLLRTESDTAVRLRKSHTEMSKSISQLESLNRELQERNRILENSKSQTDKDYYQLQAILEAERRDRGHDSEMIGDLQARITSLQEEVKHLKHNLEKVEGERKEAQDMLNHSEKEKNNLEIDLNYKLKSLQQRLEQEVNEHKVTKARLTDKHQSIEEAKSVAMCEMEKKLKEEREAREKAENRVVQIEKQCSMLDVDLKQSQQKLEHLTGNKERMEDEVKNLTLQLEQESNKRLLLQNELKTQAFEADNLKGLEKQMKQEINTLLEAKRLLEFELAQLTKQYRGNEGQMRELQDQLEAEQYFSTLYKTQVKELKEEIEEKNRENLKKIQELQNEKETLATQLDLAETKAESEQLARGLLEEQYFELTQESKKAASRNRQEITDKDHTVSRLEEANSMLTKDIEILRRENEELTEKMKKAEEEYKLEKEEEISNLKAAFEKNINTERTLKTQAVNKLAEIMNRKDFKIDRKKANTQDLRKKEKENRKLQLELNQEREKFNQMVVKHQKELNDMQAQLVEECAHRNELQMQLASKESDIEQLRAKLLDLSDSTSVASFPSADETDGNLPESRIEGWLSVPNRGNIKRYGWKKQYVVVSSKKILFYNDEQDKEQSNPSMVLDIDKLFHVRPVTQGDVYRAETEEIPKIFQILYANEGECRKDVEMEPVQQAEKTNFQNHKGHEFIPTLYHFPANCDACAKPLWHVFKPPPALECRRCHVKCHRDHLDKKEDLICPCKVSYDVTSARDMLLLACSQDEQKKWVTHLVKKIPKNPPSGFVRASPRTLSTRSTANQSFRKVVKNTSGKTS
Chain of Cytochrome P450 2C19 (P33261 whole entry): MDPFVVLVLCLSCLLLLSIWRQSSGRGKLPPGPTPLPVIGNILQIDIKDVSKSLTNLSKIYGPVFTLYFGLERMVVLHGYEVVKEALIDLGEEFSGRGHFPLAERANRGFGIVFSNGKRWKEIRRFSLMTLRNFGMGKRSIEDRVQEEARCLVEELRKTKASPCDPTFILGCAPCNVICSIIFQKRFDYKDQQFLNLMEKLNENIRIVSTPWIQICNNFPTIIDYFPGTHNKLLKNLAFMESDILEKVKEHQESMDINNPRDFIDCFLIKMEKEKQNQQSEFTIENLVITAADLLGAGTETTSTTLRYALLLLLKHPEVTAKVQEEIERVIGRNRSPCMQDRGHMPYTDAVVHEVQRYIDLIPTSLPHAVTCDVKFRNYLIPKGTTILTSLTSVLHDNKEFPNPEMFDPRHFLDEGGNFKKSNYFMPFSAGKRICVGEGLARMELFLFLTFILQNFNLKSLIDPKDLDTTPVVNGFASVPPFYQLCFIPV
Chain of Cytochrome P450 3A4 (P08684 whole entry): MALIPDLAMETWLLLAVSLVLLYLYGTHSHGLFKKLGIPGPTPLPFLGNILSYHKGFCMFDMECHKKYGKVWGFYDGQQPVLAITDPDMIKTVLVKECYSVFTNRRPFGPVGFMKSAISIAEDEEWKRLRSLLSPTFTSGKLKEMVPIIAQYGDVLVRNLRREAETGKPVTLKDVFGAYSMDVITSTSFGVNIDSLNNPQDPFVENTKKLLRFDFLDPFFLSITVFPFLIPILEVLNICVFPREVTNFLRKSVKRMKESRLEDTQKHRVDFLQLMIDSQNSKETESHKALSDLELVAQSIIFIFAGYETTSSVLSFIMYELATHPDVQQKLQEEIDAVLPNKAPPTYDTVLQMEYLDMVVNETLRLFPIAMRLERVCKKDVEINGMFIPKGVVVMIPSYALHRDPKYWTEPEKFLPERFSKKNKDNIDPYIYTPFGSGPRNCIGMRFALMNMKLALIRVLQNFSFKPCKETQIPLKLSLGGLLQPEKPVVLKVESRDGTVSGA
Chain of Cytochrome P450 2D6 (P10635 whole entry): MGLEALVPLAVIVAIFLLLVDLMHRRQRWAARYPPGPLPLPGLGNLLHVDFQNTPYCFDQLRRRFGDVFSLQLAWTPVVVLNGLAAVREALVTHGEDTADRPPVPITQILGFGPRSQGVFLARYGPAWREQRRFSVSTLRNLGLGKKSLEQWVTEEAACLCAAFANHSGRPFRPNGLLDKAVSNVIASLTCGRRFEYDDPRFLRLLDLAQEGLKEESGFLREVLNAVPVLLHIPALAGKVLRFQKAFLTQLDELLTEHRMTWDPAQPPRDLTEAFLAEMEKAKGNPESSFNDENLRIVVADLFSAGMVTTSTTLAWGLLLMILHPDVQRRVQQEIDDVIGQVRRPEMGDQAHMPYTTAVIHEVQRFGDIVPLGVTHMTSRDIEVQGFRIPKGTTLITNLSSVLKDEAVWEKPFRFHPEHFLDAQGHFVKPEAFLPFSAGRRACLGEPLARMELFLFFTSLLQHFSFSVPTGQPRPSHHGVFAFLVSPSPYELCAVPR

Regarding `CCN(CC)c1ncc(-c2ccncc2)nc1N1CCCN(C)CC1`, the IC50 in series [1] turned out to be 2600 nM; in [2], 6700 nM.
For `CN1CCCN(c2nc(-c3ccncc3)cnc2NCCO)CC1` the same measures were 42000 nM and 3000 nM.
With `CN1CCCN(c2nc(-c3ccc4cn[nH]c4c3)cnc2N)CC1`, the IC50 in series [1] and in [2] was more than 10000 nM in each case.
Turning to `CNc1ncc(-c2ccncc2)nc1N1CCCN(C)CC1`, the IC50 in [1] was found to be 6900 nM; in [2] it was 2400 nM.
For `Nc1ncc(-c2ccncc2)nc1N1CCN(CCO)CC1` the same measures were 4600 nM and 2500 nM.
The like results for `Cc1cc(-c2cnc(N)c(N3CCCN(C)CC3)n2)ccn1` were, in that order, more than 100000 nM and more than 100000 nM.
The like results for `COCCNc1ncc(-c2ccncc2)nc1N1CCCN(C)CC1` were, in that order, 10000 nM and 52000 nM.
On to `CN1CCCN(c2nc(-c3ccc4[nH]ncc4c3)cnc2N)CC1`, for which the IC50 is 2300 nM in [1] and 950 nM in series [2].
The like results for `CNC1CCN(c2nc(-c3ccncc3)cnc2N2CCCC2)CC1` were, in that order, 1800 nM and 250 nM.
For `CN1CCCN(c2nc(-c3ccnc(N)c3)cnc2N)CC1`, the IC50 amounted to 25000 nM in [1] and 53000 nM in [2].
For the molecule `CN1CCCN(c2nc(-c3ccnc4[nH]ccc34)cnc2N)CC1`, the IC50 in series [1] came to 1500 nM; in [2] it was 530 nM.
The like results for `NCC1CCN(c2nc(-c3ccncc3)cnc2N2CCCC2)CC1` were, in that order, 130 nM and 28 nM.
For `c1cc(-c2cnc(N3CCCC3)c(N3CCNCC3)n2)ccn1` the same measures were 610 nM and 62 nM.
The like results for `CN1CCCN(c2nc(-c3ccncc3)cnc2N2CCOCC2)CC1` were, in that order, 68000 nM and 6300 nM.
With `c1cc(-c2cnc(N3CCCC3)c(N3CCCNCC3)n2)ccn1`, the IC50 was 320 nM in [1] and 39 nM in [2].
In the case of `COCCN(C)c1ncc(-c2ccncc2)nc1N1CCCN(C)CC1`, the IC50 was determined as 48000 nM in series [1] and 45000 nM in [2].
The like results for `CN1CCCN(c2nc(-c3ccncc3)cnc2N2CCCC2)CC1` were, in that order, 6000 nM and 330 nM.
For the molecule `c1cc(-c2cnc(N3CCCC3)c(N3CCCNCC3)n2)c2cc[nH]c2n1`, in series [1], the IC50 worked out at 170 nM.
For the molecule `NC1CCN(c2nc(-c3ccnc4[nH]ccc34)cnc2N2CCCC2)CC1`, the IC50 turned out to be 300 nM in series [1] and 89 nM in series [2].
For `OCCN1CCN(c2nc(-c3ccncc3)cnc2N2CCCC2)CC1`, the IC50 in series [1] turned out to be 300 nM; in [2], 78 nM. For the same molecule, the Activity on Cytochrome P450 2C19, at Cytochrome P450 2B6, on Cytochrome P450 3A4, at Cytochrome P450 2D6, at Cytochrome P450 1A2 and at Cytochrome P450 2C8 was more than 2 µM each time. Also, the remaining at 1 h in series [3] amounted to 100%.
Turning to `CN1CCCN(c2nc(-c3cccc4[nH]ncc34)cnc2N)CC1`, the concentration for half-maximal inhibition (IC50) in series [1] is 9600 nM; in series [2] it was 2500 nM.
For `CN1CCCN(c2nc(-c3cc[nH]n3)cnc2N)CC1` the same measures were 37000 nM and 2900 nM.
The like results for `CN1CCCN(c2nc(-c3ccncc3)cnc2N(C)C)CC1` were, in that order, 6500 nM and 1700 nM.
In the case of `Cc1cnccc1-c1cnc(N)c(N2CCCN(C)CC2)n1`, the half-maximal inhibitory concentration (IC50) in series [1] turned out to be 120000 nM; in series [2] it was 58000 nM.
As to `CNCC1CCN(c2nc(-c3ccncc3)cnc2N2CCCC2)CC1`, the IC50 in series [1] worked out at 150 nM; in series [2] it was 49 nM.
The like results for `NC1CCN(c2nc(-c3ccncc3)cnc2N2CCCC2)CC1` were, in that order, 290 nM and 62 nM.
For `CN1CCCN(c2nc(-c3ccncc3)cnc2N)CC1` the same measures were 4600 nM and 2500 nM.
The like results for `CN1CCCN(c2nc(-c3ccncc3)cnc2N2CCCCC2)CC1` were, in that order, 18000 nM and 560 nM.
Take `c1cc(-c2cnc(N3CCCC3)c(N3CCNCC3)n2)c2cc[nH]c2n1`: the IC50 in [1] worked out at 34 nM; in series [2] it was 17 nM.
The like results for `CN(C)c1ncc(-c2ccncc2)nc1N1CCN(CCO)CC1` were, in that order, 1400 nM and 300 nM.

These data come from ChEMBL document CHEMBL1157736, “2,3-Diaminopyrazines as Rho kinase inhibitors” (Bioorg Med Chem Lett, 2010).
